Source: patent US20080119548A1, “Control Of Feeding Behavior By Changing Neuronal Energy Balance” (priority 2004, published 2008)

Columns and labels:
pCREB = assay: Immunohistochemistry of pCREB in the arcuate nucleus; assay type: in vivo, mice; conditions: C75-treated (24 hr) mice
Protocol: Free-floating sections were blocked in PBS containing 5% goat serum, 0.1% BSA, 0.05% Triton-X100, 1 mM NaF for 1 hr at room temperature and incubated with anti-phospho-AMPKα (α1 and α2) antibody (1:100) or anti-phospho-CREB antibody (1:500, Cell Signaling) in PBS containing 1% goat serum, 0.1% BSA, 0.05% Triton-X100, 1 mM NaF overnight at 4° C. Signal was visualized by Vectastain ABC kit (Vector). Images of in situ hybridization and immunohistochemistry were visualized using an Axiocam HRc digital camera (Carl Zeiss) and images were acquired using Improvision Openlab software, and quantified by NIH Image program (Macro).

[1] = Changes in bodyweight 24 hr after i.c.v. injection; assay type: in vivo, mice; conditions: C75 10 μg i.c.v.
Description: (d) Changes in bodyweight 24 hr after i.c.v. injection of C75, AICAR or compound C (n=4-10). Mice were implanted with permanent stainless steel cannulae into the lateral ventricle of the brain 0.6 mm caudal to Bregma, 1.2 mm lateral to the midline, and sunk to a depth of 2.2 mm below the surface of the skull. Implanted mice were housed in individual cages and utilized for i.c.v. and i.p. injections as indicated. C75 dissolved in RPMI1640 (Gibco-BRL), AICAR (Toronto Research Chemicals Inc) or compound […], Inc.) in saline was injected i.c.v., such that desired dose could be administered in a volume of 2.5 μl, while control groups received vehicle only. Injections were done immediately preceding dark onset and food intake measurements were taken at 1 hr (0-1 hr interval), 3 hr (1-3 hr interval), and 24 hr (3-24 hr interval) after dark onset. […]. treatment groups were i.p. injected with 5 mg/kg bodyweight C75 dissolved in […] of glucose-free RPMI 1 hr before the dark onset, followed by 3 μg/2.5 μl saline i.c.v. AICAR immediately preceding the dark onset. Control groups received 200 μl of glucose free RPMI 1 hr before lights off and 2.5 μl of saline. Administration of i.p. compound C (10 or 30 mg/kg bodyweight) or C75 (10 mg/kg bodyweight) was followed by food intake measurement at the same times indicated.

[2] = system: hypothalamic AMPKα (α1 and α2); assay: Western blot of phosphorylated AMPKα in hypothalamus; assay type: in vivo, mice; conditions: for reduction of levels of pAMPKα (α1 and α2) in the hypothalamus vs vehicle: C75 i.c.v. (5 μg or 10 mg)
Protocol: (§1) Hypothalami were dissected using as landmarks the optic chiasm rostrally, and the mammillary bodies caudally to a depth of 2 mm. Dissected hypothalamic and liver tissue were immediately frozen in liquid nitrogen. Tissues were homogenized in 200 μl of lysis buffer (50 mM Tris-HCl, pH 7.5, 250 mM sucrose, 5 mM sodium pyrophosphate, 50 mM NaF, 1 mM EDTA, 1 mM EGTA, 1 mM DTT, 0.5 mM PMSF, 0.1 mM benzamidine, 50 μg/ml leupeptin, 50 μg/ml soybean trypsin inhibitor). SDS detergent was added to a final 0.2%, and lysates were boiled for 5 min. After the supernatant was harvested, protein concentration was determined by BCA kit (Bio Rad). Phosphorylation of AMPKα was determined on a 4-15% gradient SDS-polyacrylamide gel using anti-phospho-AMPKα (α1 and α2, Thr172) antibody (1:1000, Cell Signaling). Anti-AMPKαt antibody (α1 and α2, 1:1000, Cell Signaling) was used as a loading control.

NPY mRNA = assay: In situ hybridization of NPY in the arcuate nucleus; assay type: in vivo; conditions: C75-treated (24 hr) mice
Protocol: Anti-sense DIG-labeled NPY riboprobe was generated from a plasmid containing the NPY gene (XM004941). […] For double fluorescent in situ hybridization, DIG-labeled riboprobe was generated from plasmid containing AMPKα2 gene (pEBGα2, a gift from L. A. Witters) for AMPKα2 (FITC) and biotin-labeled riboprobe was used for NPY (Texas Red). Sheep FITC-conjugated anti-DIG antibody (1:50, Roche) was incubated in TNB buffer (100 mM Tris-HCl pH 7.5, 150 mM NaCl, and 0.5% blocking reagent) for FITC detection. Streptavidin-Texas Red (1:50, Amersham Pharmacia), rabbit anti-Texas Red antibody (1:50, Molecular Probes), goat biotin-conjugated anti-rabbit IgG antibody (1:50, Santa Cruz Biotechnology) and streptavidin-Texas Red (1:30) were incubated serially in TNB buffer for Texas Red detection.
(§2) Images of in situ hybridization and immunohistochemistry were visualized using an Axiocam HRc digital camera (Carl Zeiss) and images were acquired using Improvision Openlab software, and quantified by NIH Image program (Macro).

[3] = system: lean, diet-induced obese (DIO), and genetically obese (ob/ob) mice; conditions: cited from earlier work
liver AMPKα = assay: Western blot of phosphorylated AMPKα in liver; assay type: in vivo, mice; conditions: C75 i.p.
Protocol: as §1

pAMPKα = assay: Immunohistochemistry of pAMPKα in the arcuate nucleus; assay type: in vivo; conditions: C75-treated (24 hr) mice
Protocol: Free-floating sections were blocked in PBS containing 5% goat serum, 0.1% BSA, 0.05% Triton-X100, 1 mM NaF for 1 hr at room temperature and incubated with anti-phospho-AMPKα (α1 and α2) antibody (1:100) or anti-phospho-CREB antibody (1:500, Cell Signaling) in PBS containing 1% goat serum, 0.1% BSA, 0.05% Triton-X100, 1 mM NaF overnight at 4° C. Signal was visualized by Vectastain ABC kit (Vector).
as §2

C=C1C(=O)OC(CCCCCCCC)C1C(=O)O (stereo not drawn) [C75]
level of pCREB in the arcuate nucleus, % of control (pCREB): 39 % of control
bodyweight [1]: reduction in body weight
level of hypothalamic pAMPKα in fasted mice ([2]; 24 hr fasting, then C75 i.p. (10 mg/kg bodyweight), vs RPMI control): profoundly reduced
levels of pAMPKα in the hypothalamus ([2]; C75 10 mg/kg body weight i.p., 30 min and 3 hr): significantly reduced
reduction of levels of pAMPKα (α1 and α2) in the hypothalamus vs vehicle ([2]; 30 min): three
reduction of levels of pAMPKα (α1 and α2) in the hypothalamus vs vehicle ([2]; 3 hr): six-fold
hypothalamic pAMPKα level ([2]; i.p. C75 and i.c.v. saline, 30 min after i.c.v. injection): profound decrease
NPY mRNA expression in the arcuate nucleus, % of control (NPY mRNA): 66 % of control
weight loss and anorexia [3]: profound weight loss and anorexia
pAMPKα levels in the liver (liver AMPKα; 30 min after administration): little effect
pAMPKα levels in the liver (liver AMPKα; 3 hr): increased pAMPKα levels
pAMPKa-immunoreactivity in the arcuate nucleus, % of control (pAMPKα): 12 % of control
